Legend:
[1] = Applicant's evaluation of sedation with the cis isomer at therapeutically effective dosages; type: in vivo
Source text: In an attempt to discover a compound that might have similar effectiveness to doxepin hydrochloride U.S.P. but less associated sedation, the applicant has evaluated the cis isomer, which as mentioned above constitutes less than 18.1 % of doxepin hydrochloride. […] The invention includes pharmaceutical compositions of cis doxepin suitable for administration to patients with affective disorders, painful disorders, or allergic disorders.

[2] = system: pruritic skin lesions of atopic dermatitis; experiment: Cream applied to pruritic skin lesions by patients with atopic dermatitis; type: in vivo, human; details: cream 1.0% by weight, applied two to four times daily
Source text: A cream containing cis doxepin isomer 1.0% by weight is applied two to four times daily to pruritic skin lesions by patients with atopic dermatitis.

[3] = in animals; 'purportedly'; cited from earlier work

## CN(C)CC/C=C1/c2ccccc2COc2ccccc21.Cl [cis doxepin hydrochloride]
[1]
  sedation compared with doxepin hydrochloride U.S.P.: produces less sedation
[2]
  relief of itching: provides for relief of itching
  resolution of the skin lesions: more prompt resolution of the skin lesions
  sedation compared with prior art doxepin creams in which the trans isomer is predominant: without producing the incidence or severity of sedation
[3]
  potency compared with doxepin hydrochloride U.S.P.: more potent
